According to patent US10080775B2, “Peptide having skin whitening activity, and use thereof” (CAREGEN CO., LTD., priority 2017, dated 2018):
Peptide text beside a SMILES is read from it.

System: melanin-forming cells (B16F10 cell line)
Test: Cytotoxicity test (MTT assay)
Assay type: cell-based, mouse
Conditions: B16F10, 1 uM to 200 uM, 72 hours, serum-free medium
Method: After melanin-forming cells (B16F10 cell line) dispensed in 48-well culture plates were incubated in a 37° C. incubator for 24 hours, the medium for each plate was removed and replaced with serum-free medium, and then the cells were treated with the peptide of the present invention at different concentrations (1, 10, 50, 100, 150, 200 uM). After the cells were incubated for 72 hours, the MTT reagent was added, followed by reaction for 4 hours. Then, the generated formazan was dissolved in DMSO, and the absorbance was measured at 560 nm.

`CCCC(CCC)C(=O)N[C@H](C(=O)N[C@@H](Cc1c[nH]c2ccccc12)C(=O)N[C@@H](CO)C(=O)N[C@@H](CC(C)C)C(=O)N[C@@H](CC(=O)O)C(=O)N[C@H](C(=O)N[C@@H](CCC(N)=O)C(=O)N[C@@H](Cc1ccc(O)cc1)C(=O)NCC(=O)NCC(=O)N[C@@H](CCCNC(=N)N)C(=O)NCC(=O)N[C@@H](CC(=O)O)C(=O)O)[C@@H](C)O)[C@@H](C)CC` [Valprooyl-Ile-Trp-Ser-Leu-Asp-Thr-Gln-Tyr-Gly-Gly-Arg-Gly-Asp-COOH] (HELM PEPTIDE1{[CCCC(CCC)C(=O)[*:2]].I.W.S.L.D.T.Q.Y.G.G.R.G.D}$$$$V2.0) was tested, and the “cytotoxicity on melanocytes (MTT assay)” value was “no cytotoxicity was observed”.
